From US20230183193A1, “4-DIFLUOROMETHYL BENZOYL AMIDES WITH HERBICIDAL ACTION” (BAYER CROPSCIENCE AKTIENGESELLSCHAFT, priority 2017, published 2023)

Legend:
Format in all cases: in vivo
Abutilon theophrasti [1] = test: Pre-emergence herbicidal action, ABUTH; conditions: dosage 320 g/ha, scored visually after 3 weeks vs untreated controls
Description: (§1) 1. Pre-Emergence Herbicidal Action Against Harmful Plants Seeds of monocotyledonous and dicotyledonous weed plants and crop plants are laid out in sandy loam soil in wood-fiber pots and covered with soil. The compounds of the invention, formulated in the form of wettable powders (WP) or as emulsion concentrates (EC), are then applied to the surface of the covering soil in the form of an aqueous suspension or emulsion at a water application rate equating to […], with addition of 0.2% wetting agent. After the treatment, the pots are placed in a greenhouse and kept under good growth conditions for the trial plants. The damage to the test plants is scored visually after a test period of 3 weeks by comparison with untreated controls (herbicidal activity in percent (%): 100% activity=the plants have died, 0% activity=like control plants).
(§2) For comparison, the herbicidal activity of numerous compounds according to the invention was tested with the structurally closest compounds known from the documents WO 2011/035874, WO 2012/028579 and WO 2012/126932, by the pre- and post-emergence method.

Alopecurus myosuroides [2] = test: Pre-emergence herbicidal action, ALOMY; conditions: dosage 320 g/ha, scored visually after 3 weeks vs untreated controls
Description: as §1, §2

Amaranthus retroflexus [3] = test: Pre-emergence herbicidal action, AMARE; conditions: dosage 320 g/ha, scored visually after 3 weeks vs untreated controls
Description: as §1, §2

Avena fatua [4] = test: Pre-emergence herbicidal action, AVEFA; conditions: dosage 320 g/ha, scored visually after 3 weeks vs untreated controls
Description: as §1, §2

Cyperus serotinus = test: Pre-emergence herbicidal action, CYPES; conditions: dosage 320 g/ha, scored visually after 3 weeks vs untreated controls
Description: as §1, §2

Matricaria inodora = test: Pre-emergence herbicidal action, MATIN; conditions: dosage 320 g/ha, scored visually after 3 weeks vs untreated controls
Description: as §1, §2

Setaria viridis [5] = test: Pre-emergence herbicidal action, SETVI; conditions: dosage 320 g/ha, scored visually after 3 weeks vs untreated controls
Description: as §1, §2

Stellaria media [6] = test: Pre-emergence herbicidal action, STEME; conditions: dosage 320 g/ha, scored visually after 3 weeks vs untreated controls
Description: as §1, §2

Viola tricolor [7] = test: Pre-emergence herbicidal action, VIOTR; conditions: dosage 320 g/ha, scored visually after 3 weeks vs untreated controls
Description: as §1, §2

Abutilon theophrasti [8] = test: Post-emergence herbicidal action, ABUTH; conditions: 80 g/ha, Table D
Experimental: (§3) Seeds of monocotyledonous and dicotyledonous weed and crop plants are laid out in sandy loam soil in wood-fiber pots, covered with soil and cultivated in a greenhouse under good growth conditions. 2 to 3 weeks after sowing, the test plants are treated at the one-leaf stage. The compounds of the invention, formulated in the form of wettable powders (WP) or as emulsion concentrates (EC), are then sprayed onto the green parts of the plants in the form of an aqueous suspension or emulsion at a water application rate equating to […], with addition of 0.2% wetting agent. After the test plants have been left to stand in the greenhouse under optimal growth conditions for about 3 weeks, the action of the preparations is assessed visually in comparison to untreated controls (herbicidal action in percent (%): 100% activity=the plants have died, 0% activity=like control plants). […] At the same time, inventive compounds leave Gramineae crops such as barley, wheat, rye, millet/sorghum, corn or rice virtually undamaged when applied post-emergence, even at high active compound dosages. In addition, some substances are also harmless to dicotyledonous crops such as soya, cotton, oilseed rape, sugar beet or potatoes. Some of the compounds according to the invention have high selectivity and are therefore suitable for controlling unwanted vegetation in agricultural crops by the post-emergence method. The data of Tables C and D below illustrate, in an exemplary manner, the […] herbicidal action of the compounds according to the invention, the herbicidal activity being stated in percent.
as §2

Alopecurus myosuroides [9] = test: Post-emergence herbicidal action, ALOMY; conditions: 80 g/ha, Table C
Experimental: as §3, §2

Amaranthus retroflexus [10] = test: Post-emergence herbicidal action, AMARE; conditions: 80 g/ha, Table D
Experimental: as §3, §2

Avena fatua [11] = test: Post-emergence herbicidal action, AVEFA; conditions: 80 g/ha, Table C
Experimental: as §3, §2

Setaria viridis [12] = test: Post-emergence herbicidal action, SETVI; conditions: 80 g/ha, Table C
Experimental: as §3, §2

Stellaria media [13] = test: Post-emergence herbicidal action, STEME; conditions: 80 g/ha, Table D
Experimental: as §3, §2

Viola tricolor [14] = test: Post-emergence herbicidal action, VIOTR; conditions: 80 g/ha, Table D
Experimental: as §3, §2

ECHCG = test: Post-emergence herbicidal action, ECHCG; conditions: 80 g/ha, Table C
Experimental: as §3

Pharbitis purpureum = test: Post-emergence herbicidal action, PHBPU; conditions: 80 g/ha, Table D
Experimental: as §3, §2

Row | Structure (SMILES) | herbicidal activity ABUTH (Abutilon theophrasti [1]) [%] | herbicidal activity ALOMY (Alopecurus myosuroides [2]) [%] | herbicidal activity AMARE (Amaranthus retroflexus [3]) [%] | herbicidal activity AVEFA (Avena fatua [4]) [%] | herbicidal activity CYPES (Cyperus serotinus) [%] | herbicidal activity MATIN (Matricaria inodora) [%] | herbicidal activity SETVI (Setaria viridis [5]) [%] | Herbicidal activity STEME (Stellaria media [6]) [%] | herbicidal activity VIOTR (Viola tricolor [7]) [%] | herbicidal activity ABUTH (Abutilon theophrasti [8]) [%] | herbicidal activity ALOMY (Alopecurus myosuroides [9]) [%] | herbicidal activity AMARE (Amaranthus retroflexus [10]) [%] | herbicidal activity AVEFA (Avena fatua [11]) [%] | herbicidal activity SETVI (Setaria viridis [12]) [%] | Herbicidal activity STEME (Stellaria media [13]) [%] | herbicidal activity VIOTR (Viola tricolor [14]) [%] | Herbicidal activity ECHCG (ECHCG) [%] | Herbicidal activity PHBPU (Pharbitis purpureum) [%]
1 | CCSc1c(C(F)F)ccc(C(=O)Nc2nnnn2C)c1CC [Example 1-16] | 100 | 100 | 100 | 100 | 100 | 100 | 100 | 100 | 100 | 100 | 90 | 100 | 90 | 90 | 100 | 100 | 90 | –
2 | CCn1nnnc1NC(=O)c1ccc(C(F)F)c(S(C)(=O)=O)c1Cl [Example 2-51] | 100 | 90 | 100 | 100 | 90 | 100 | 100 | 90 | 100 | 100 | – | 100 | 90 | 90 | 100 | 100 | 90 | 90
3 | CCSc1c(C(F)F)ccc(C(=O)Nc2nnc(C)o2)c1C [Example 7-4] | 100 | 90 | 100 | – | – | 80 | 100 | 90 | 100 | – | 90 | 100 | 90 | 100 | 90 | 100 | 100 | –
4 | CCn1nnnc1NC(=O)c1ccc(C(F)F)c([S+](C)[O-])c1Cl (centres unmarked) [Example 2-50] | 100 | 100 | 100 | 100 | 100 | 100 | 100 | 100 | 100 | 100 | – | 100 | 100 | 100 | 100 | 100 | 90 | 100
5 | CCSc1c(C(F)F)ccc(C(=O)Nc2nnnn2CC)c1F [Example 2-40] | 100 | – | 100 | – | – | 100 | 100 | 100 | 100 | 100 | 80 | 100 | – | 100 | 100 | 100 | 100 | 90
6 | CCc1c(C(=O)Nc2nnc(C)o2)ccc(C(F)F)c1SC [Example 7-11] | 100 | 80 | 100 | 90 | 90 | – | 100 | 80 | 100 | 90 | 90 | 90 | – | 90 | 90 | 100 | 90 | 90
7 | CCSc1c(C(F)F)ccc(C(=O)Nc2nnnn2CC)c1C [Example 2-4] | 100 | 100 | 100 | 100 | 100 | 100 | 100 | 90 | 100 | – | 90 | – | 100 | 90 | 100 | 100 | 90 | 100
8 | CCCn1nnnc1NC(=O)c1ccc(C(F)F)c([S+](C)[O-])c1C (centres unmarked) [Example 3-2] | 100 | 90 | 100 | 90 | 80 | 100 | 100 | 90 | 100 | 80 | 90 | – | 90 | 100 | 100 | 100 | 90 | 90
